Measurements reported in publication PMC12373846, “Hemoglobin as a pseudoperoxidase and drug target for oxidative stress-related diseases” (Signal Transduction and Targeted Therapy, 2025).
Read-outs that look alike come from different tables or passages of the source.

What was measured:
[1] = system: APP/PS1 mice; experiment: Immunohistochemistry of hippocampus, APP/PS1 mice; assay type: in vivo, mouse
Experimental: For an animal model of AD, both sexes of 10- to 18-month-old APP/PS1 mice were maintained and used as previously described.[76],[77] To test the effects of novel H2O2-decomposing enhancers in the AD model, the mice were treated by i.p. injection with KDS12008 (3 mg/kg/day), KDS12017 (3 mg/kg/day), or KDS12025 (3 or 10 mg/kg/day) once per day for 1 or 2 weeks, depending on the experimental protocol. All drugs were dissolved in 200 μl of saline, and the amount of each drug was calculated on the basis of the weight (kg) of the mouse. Moreover, KDS12025 (3 mg/kg/day) was orally administered to the AD model for 2 weeks ad libitum.
The mice were deeply anesthetized with vaporized 1% isoflurane and placed into stereotaxic frames (RWD Life Science, China). Following an incision on the midline of the scalp, a hole was drilled into the skull above the hippocampus. AAV-GFAP104-GFP or AAV-GFAP104-DTR-GFP was bilaterally microinjected into the hippocampal CA1 region (AP, −2.0 mm; ML, ±1.5 mm; DV, −1.65 mm from the bregma). Diphtheria toxin (2 mg/ml) was administered for 16 days as previously described.[77] For shRNA knockdown, AAV-pSicoR-Hbβ-shRNA-mCherry or AAV-pSicoR-Sc-shRNA-mCherry was microinjected into the same coordinate system. A total of 0.8 µl of the virus was injected via a syringe pump (KD Scientific, USA). The injection procedures were implemented before 5 weeks of the experiments. For cell type-specific knockdown, AAV-pSico-Hbβ-shRNA-GFP or AAV-pSico-Sc-shRNA-GFP was combined with either AAV-CaMKII-Cre-mCherry for neuronal targeting or AAV-GFAP-Cre-mCherry for astrocyte targeting. The viruses were bilaterally injected into the hippocampus and substantia nigra via the same stereotaxic coordinates and injection procedures. All viruses used in this study were produced at the Institute for Basic Science virus facility (IBS virus facility, Korea). To investigate the effects of 0.1 mg/kg/day KDS12025, GiD mice were injected with diphtheria toxin (2 mg/ml) daily for 16 days. Concurrently, KDS12025 was administered ad libitum (0.1 mg/kg/day) during the same period.
The mice were deeply anesthetized with 2% isoflurane and positioned on the operating table. After the abdomen was opened and the heart was exposed, the […] were perfused with saline, followed by 4% paraformaldehyde (PFA) in 0.1 M PBS. The mice were decapitated, and the brains were excised from the skull. Excised brains were postfixed in 4% PFA overnight at 4 °C and dehydrated in 30% sucrose for 48 h. Coronal hippocampal sections were cut at 30 µm thickness with a cryostat and stored in storage solution. For the ALS experiments, lumbar spinal cords (L2–L5) were also carefully dissected and immediately immersed in 4% PFA for postfixation. The sections were fully washed in 0.1 M PBS and incubated for 1 h in blocking solution (0.3% Triton X-100, 2% donkey and goat serum in 0.1 M PBS). Next, a mixture of primary antibodies in the blocking solution was used for immunostaining on a shaker overnight at 4 °C. The sections were washed in PBS three times. After washing, the sections were incubated with the corresponding fluorescent secondary antibodies for 1 h at RT. DAPI staining was performed by adding a DAPI solution (1:2000) during the second washing step. After the washing step was complete, the sections were mounted on cover slides with mounting medium. A series of fluorescence images were obtained with an LSM900 (Zeiss, Germany) confocal microscope or Lattice SIM Elyra 7 (Zeiss, Germany). The 15–22 μm Z stack images in 1–2 μm steps were processed for image analysis, which was performed via the ImageJ (NIH, US) and ZEN digital imaging for light microscopy blue system (Zeiss, Germany) programs.

[2] = biological target: T1, Hb (Homo sapiens, UniProt P68871); experiment: ROS-Glo H2O2 assay with Hb; assay type: biochemical; settings: for remaining H2O2 normalized to no Hb: Fig. 2d
T1 construct: purchased Sigma-Aldrich H7379
Experimental: Hb (Sigma‒Aldrich, H7379), H2O2 (Sigma‒Aldrich, H1009), and Amplex Red reagents (Invitrogen, A12222) were obtained for the study. A 4 μM H2O2 solution was prepared in 50 mM sodium phosphate buffer (pH 7.2). Then, 49 μl of this mixture was mixed with 1 μl of the test compound in DMSO or distilled water. The mixture was combined with an assay mixture of Amplex Red reagent (20 mM stock to 0.1 mM) and HRP (200 U/ml stock to 0.2 U/ml) and added to the wells at 50 μl/well. After a 60-min incubation at 37 °C, resorufin production was quantified via a microplate fluorescence reader (SpectraMax iD5, Molecular Devices) at ex/em = 535/580 nm. […] For the ROS-Glo assay, the H2O2 substrate solution and ROS-Glo detection solution were prepared according to the manufacturer’s instructions. 10 μM H2O2 and drugs were prepared as in the Amplex Red assay, with HRP, Hb, CAT, or GPx added as needed. The mixture was added to the wells at 100 μl/well and incubated for 60 min at 37 °C. H2O2 substrate solution was added, and the mixture was incubated at room temperature for 30 min. After the H2O2 substrate solution was added and incubated at room temperature for 30 min, the ROS-Glo detection solution was added, and the mixture was incubated for 15 min. Luminescence was measured via iD5 microplate readers. […] The U/ml was calculated on the basis of the amount of H2O2 reduced by Hb during the reaction, using μg/ml and U/mg.
To evaluate the extent of peroxidase function facilitation by HTPEB (1 μM) and KDS12025 (1 μM) in HRP (0.2 U/ml) and Hb (10 μg/ml), we used the ROS-Glo assay over 30 and 60 min. The fold change was calculated by dividing the delta values during the 30-min reaction for the vehicle over drug conditions.
To assess enzyme activity, the amount of H2O2 consumed over a specific time was quantified alongside a standard curve. For the peroxidase function of Hb, Hb was administered at doses ranging from 0.01 to 112 U/ml and preincubated with H2O2 and either DMSO, HTPEB (1 μM), or KDS12025 (1 μM) at 37 °C for 30 min. The remaining H2O2 was measured via the ROS-Glo assay and normalized against conditions without Hb. The dose‒response curve, EC50, and EC20 for H2O2 decomposition were calculated and determined by fitting the data with GraphPad Prism software. The fitting method had no special handling of outliers, and least squares regression with confidence intervals of the parameters was 95%.

T1 sequence (P68871 2-147 limits assumed): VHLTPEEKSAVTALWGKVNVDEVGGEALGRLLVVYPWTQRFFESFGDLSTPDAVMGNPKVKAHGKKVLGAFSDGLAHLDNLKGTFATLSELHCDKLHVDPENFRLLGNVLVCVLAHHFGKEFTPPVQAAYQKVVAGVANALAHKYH
T1 sequence (P69905 2-142 partner limits assumed): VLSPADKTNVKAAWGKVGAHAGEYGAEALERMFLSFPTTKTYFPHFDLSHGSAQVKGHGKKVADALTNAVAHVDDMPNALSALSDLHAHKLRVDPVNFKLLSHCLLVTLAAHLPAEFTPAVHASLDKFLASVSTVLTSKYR

CNc1ccc(NCCc2ccccc2OC)cc1.Cl [KDS12025, N^1-(2-methoxyphenethyl)-N^4-methylbenzene-1,4-diamine hydrochloride salt]
Sholl analysis, number of intersections ([1]; APP+shHbβ+KDS12025, Fig. S16g): 5.314±0.9626 | Hbβ intensity in GFAP-positive areas ([1]; APP+shHbβ::CaMKII+KDS12025, Fig. 6m): 110.5±1.59 | GFAP-positive area ([1]; APP+shHbβ::CaMKII+KDS12025, Fig. 6n): 55.98±5.45 | GFAP intensity ([1]; APP+shHbβ::CaMKII+KDS12025, Fig. 6o): 131.4±3.56 | Sholl analysis, sum of intersections ([1]; APP+shHbβ::CaMKII+KDS12025, Fig. S17b): 42.1±3.9 | Sholl analysis, ending radius ([1]; APP+shHbβ::CaMKII+KDS12025, Fig. S17c): 80.3±6.8 | Hbβ intensity in GFAP-positive areas ([1]; APP+shHbβ::GFAP+KDS12025, Fig. 6m): 87.46±1.26 | GFAP-positive area ([1]; APP+shHbβ::GFAP+KDS12025, Fig. 6n): 134.3±10.91 | GFAP intensity ([1]; APP+shHbβ::GFAP+KDS12025, Fig. 6o): 152.1±5.50 | Sholl analysis, sum of intersections ([1]; APP+shHbβ::GFAP+KDS12025, Fig. S17b): 57.9±3.7 | Sholl analysis, ending radius ([1]; APP+shHbβ::GFAP+KDS12025, Fig. S17c): 109.8±5.4 | enhancement of Hb pseudoperoxidase activity [2]: 100 fold | EC50 ([2]; Fig. S1f, read-out: EC50, H2O2 decomposition with human hemoglobin (hHb)): 0.033 µM | remaining H2O2 normalized to no Hb ([2]; Hb 0.01 U/ml): 82.57±2.025 | H2O2 decomposition at extremely low Hb ([2]; Hb 0.04 U/ml, 0.03 μg/ml): up to 20% | remaining H2O2 normalized to no Hb ([2]; Hb 0.1 U/ml): 75.36±1.113 | remaining H2O2 normalized to no Hb ([2]; Hb 1 U/ml): 62.38±2.923 | fold change in H2O2 decomposition (Hb pseudoperoxidase activity per 0.5 h) ([2]; Hb, 30-min window, Fig. 2b): 5.676±0.6374 fold | EC50 ([2]; Tables S2, S3, read-out: HB-EC50): 0.0449 µM | EC50 ([2]; in the presence of Hb, Fig. 1h, read-out: EC50 with Hb (H2O2 decomposition)): 0.04 µM | potency relative to HTPEB ([2]; ratio of EC50 with Hb): ~ 4 fold | fold decrease of Hb EC20 for H2O2 decomposition ([2]; vs Hb alone, Fig. 2e): 98 fold | fold decrease of Hb EC50 for H2O2 decomposition ([2]; vs Hb alone, Fig. 2e): 4.7 fold
